The source of these data is PubChem BioAssay AID2305 (GlaxoSmithKline (GSK), 2010).

Each structure is given as a SMILES string. pIC50: −log10 of the molar value. “And” between values parts separate entries of the source, which are not always exact repeats. Equal entries are not always repeated.

The assay concerns P. falciparum 3D7 growth, pLDH absorbance. Put plainly: blood-stage malaria parasite growth potency – strain 3D7, dose response (AID 2305).
`O=C(Nc1ccc(-c2ccccc2)cc1)Nc1cccc(Cn2nc(Cl)c(N3CCCNCC3)cc2=O)c1` showed a pIC50 of 6.17.
With `CC(C)CN1CCC(COc2ccc3ncn(-c4cc(O[C@H](C)c5ccccc5C(F)(F)F)c(C(N)=O)s4)c3c2)CC1`, the pIC50 was 6.21.
With `CSc1ccc2ccccc2c1CCNCCCCNCCc1c(SC)ccc2ccccc12` the figure was 6.39; with `COc1ccc2nccc(N3CCC(NCCNCc4ccc5c(n4)NC(=O)CO5)C3)c2n1` (stereo not drawn), 6.07.
To `c1ccc(OCCCCN2CCCCC2)cc1` belongs 6.27; to `Cc1nc(-c2cccc(NC(C)C(=O)Nc3cc(C(F)(F)F)ccc3N3CCOCC3)c2)cs1` (stereo not drawn), 6.62.
With `Cc1cccc2[nH]c(-c3ccc(-c4ccc(CN5CCN(CCO)CC5)cc4)s3)nc12` the figure was 6.15.
`COc1ccc2nc(-c3ccc(C(=O)NCCCN4CCN(c5cc(Cl)ccc5OC)CC4)cc3)[nH]c2c1` had a pIC50 of 6.11.
To `COc1ccc2nc3ccccc3c(NCCN3CCN(C)CC3)c2c1` belongs 5.89.
To `COc1c(C2CCN(CCCCNC(=O)c3ccc(-c4ccc(NC(=O)C(F)(F)F)cc4)cc3)CC2)ccc2c1CCCC2` belongs 6.00; to `O=C(C=Cc1ccc(F)c(Br)c1)N1CCC(CN2CCC(c3c[nH]c4ccccc34)CC2)CC1`, 6.12; to `Cc1ccc(O)c(Nc2c3c(c(C#N)c4nc5ccccc5n24)CCC3)c1`, 5.90.
Consider `CCCC1(NC[C@@H](O)[C@H](Cc2ccccc2)NC(=O)c2cc(NCC)cc(N3CCCCS3(=O)=O)c2)CCCC1`, for which the pIC50 was 6.30.
As for `c1cc2nc(CCCc3nc4ccc(C5=N[C@H]6CCCC[C@H]6N5)cc4[nH]3)[nH]c2cc1C1=N[C@@H]2CCCC[C@@H]2N1`, the pIC50 is 5.91.
Compound `CCCCN(CCCC)CCCN(CCCN(CCCC)CCCC)c1cc(C)nc(Nc2ccc(Cl)cc2)n1` gave a negative logarithm of the IC50 (pIC50) of 6.43.
With `CCCCn1c(Sc2ccc(C#N)c([N+](=O)[O-])c2)nnc1-c1cc(OC)cc(OC)c1` the figure was 6.09.
To `COC(=O)Cn1c(C2CCN(CC3CCN(C(=O)/C=C/c4ccc(Cl)c(Cl)c4)CC3)CC2)nc2ccccc21` belongs 5.92; to `O=c1ccc(CNc2nc(NCCc3ccccc3)nc3ccc(Cl)cc23)c[nH]1`, 6.11.
To `COc1cc(C(=O)Nc2cccc(-c3cn4cccc(C)c4n3)c2)cc(OC)c1OC` belongs 6.15; to `COCCNCC(O)Cn1c2ccc(Cl)cc2c2cc(Cl)ccc21` (stereo not drawn), 7.30; to `COc1ccc(CNC(=O)c2cnc3c(O)cccc3c2Nc2cccc(NC(=O)c3ccc(F)cc3)c2)cc1`, 6.00.
With `CSc1c(CNCCCNc2cc(=O)c3ccccc3[nH]2)[nH]c2ccccc12`, the pIC50 was 5.95.
In the case of `CCc1nc2c(cnn2CC)c(NC2CCOCC2)c1CNC(=O)N1CCOCC1`, the pIC50 is 6.05.
As for `Cc1cc(NN=Cc2ccc(Cl)cc2)c2cc(F)ccc2n1`, the pIC50 is 6.08.
The compound `CCCC(C)NC[C@@H](O)[C@H](Cc1ccccc1)NC(=O)c1cc(C2CCCC2)cc(N2CCCCS2(=O)=O)c1` (stereo partly drawn) gave a pIC50 of 6.82.
`CNCCNCc1cccc(-c2ccc(-c3nc4c(C)cccc4[nH]3)s2)c1` had a negative-log IC50 (pIC50) of 6.02.
To `Cc1cc(-c2ccc(NC(=O)N3CCc4cc(Cl)c(N5CCN(C)CC5)cc43)cc2)ccc1C#N` belongs 6.23; to `Cc1cc(N[C@@H](Cc2ccccc2)C(=O)NCCCOC(C)C)nc(NCC2CCCCC2)n1`, 6.06.
To `O=C(Nc1ccc(-c2cccc(-c3nc4ccc(F)cc4[nH]3)c2)cc1)Nc1ccsc1` belongs 6.16; to `O=[N+]([O-])c1ccc(NC(=NC2CCCc3ccccc32)Nc2ccccc2Br)c(O)c1` (stereo not drawn), 6.04.
In turn, `C[C@H](Cc1ccc(OCCCCCOc2ccc(C[C@@H](C)NC[C@H](O)c3cccc(Cl)c3)cc2)cc1)NC[C@H](O)c1cccc(Cl)c1` had a negative logarithm of the IC50 (pIC50) of 6.72.
To `CCN(CC)CCN(Cc1ccc(-c2ccc(C(F)(F)F)cc2)cc1)C(=O)Cn1c(CCc2c(F)cc(F)cc2F)nc(=O)c2ccccc21` belongs 5.98; to `CCOC(=O)C(NC(=O)c1ccc([N+](=O)[O-])o1)C(C)C` (stereo not drawn), 5.97.
Regarding `CC(Cc1ccc(C(C)(C)C)cc1)NCC(O)c1ccccc1` (stereo not drawn), the pIC50 is 5.74.
To `CC1CN=C(c2ccc(NC(=O)Nc3ccc(C4=NCC(C)N4)cc3)cc2)N1` (stereo not drawn) belongs 6.42.
For the compound `CNCCNCc1cccc(-c2cccc(-c3nc4c(C)cccc4[nH]3)c2)c1`, the pIC50 was 6.11.
To `O=C(CCCCCNC(=O)c1ccc(O)c(-c2ccc(Cl)c(Cl)c2)c1)NCCN1CCCC1` belongs 6.01; to `CCOC(=O)c1[nH]c(-c2ccc(-c3ccccc3)cc2)nc1N`, 6.38.
With `CC(=O)Nc1ccc(C2NC(=O)NC(c3ccccc3)=C2c2nc3ccccc3s2)cc1` (stereo not drawn) the figure was 5.95; with `CCNc1cc(C(=O)N[C@@H](Cc2cc(F)cc(F)c2)[C@H](O)CNCc2cccc(C(F)(F)F)c2)cc(N2CCCCS2(=O)=O)c1`, 6.21.
To `C[C@@H]1CN(c2cnn(Cc3ccc(NC(=O)Nc4ccc(-c5ccccc5)cc4)cc3)c(=O)c2Cl)C[C@H](C)N1` belongs 6.43; to `O=c1cc(NCCCNCc2ccc(Cl)c(Cl)c2)[nH]c2cc(F)cc(F)c12`, 6.17; to `N#Cc1ccc2c(c1)CN(CCC1CCC(NC(=O)/C=C/c3c[nH]c4ccccc34)CC1)CC2` (stereo not drawn), 6.00 and 6.05.
`COc1cc(C(=O)Nc2cccc(-c3nc4ccccc4[nH]3)c2)cc(OC)c1OC`: the pIC50 was 6.14.
To `Cc1cccc2[nH]c(-c3cccc(-c4ccc(NC(=O)C(C)C(=O)NC(C)C)cc4)c3)nc12` (stereo not drawn) belongs 6.00; to `CCn1cc2c3c(cc(C(=O)N[C@@H](Cc4ccccc4)[C@H](O)CNCc4cccc(OC)c4)cc31)N(C)S(=O)(=O)CC2`, 6.17; to `O=C(NCCN1CCOCC1)c1ccc(CNC(=O)c2ccc(O)c(-c3ccc(Cl)c(Cl)c3)c2)cc1`, 6.03.
To `CN(C(=O)c1snnc1-c1ccccc1)C1CCN(CCCCCNC(=O)/C=C/c2ccc(Cl)c(Cl)c2)CC1` belongs 6.72.
Take `O=C(NC1CCN(Cc2ccc3c(c2)OCCO3)CC1)c1ccc(-c2cccc(Cl)c2)s1`: the pIC50 was 5.72.
To `Cc1ccc(CN2CCN(Cc3cccc(NC(=O)c4ccc5ccccc5c4)c3)CC2)cc1C` belongs 5.91.
Consider `O=C(Nc1cc(Cl)c(Cl)cc1NC(=O)c1cccc(-c2ccccc2)c1O)c1cccc(-c2ccccc2)c1O`, for which the pIC50 is 6.29.
Turning to `CCNC(=O)Nc1ccc(N(C)c2ccnc(NC3CC3)n2)cc1`, the pIC50 was 6.10.
To `CCOc1ccc(N2C(N)=NC(N)=NC2(C)C)cc1` belongs 6.59.
`Oc1ccc(CCNc2nc(NCCCOc3cccc(-c4ccccc4)c3)nc(N3CCNCC3)n2)cc1` gave a pIC50 of 5.95.
With `CN(C)CC(=O)N(Cc1ccc(Cl)c(Cl)c1)Cc1csc(-c2ccc(CNCc3ccccc3)cc2)n1` the figure was 5.98.
For `CCOC(=O)c1ccc(NC(=O)N[C@@H](Cc2ccccc2)C(=O)NC2CCN(Cc3ccc(O)cc3)C2)cc1` (stereo partly drawn), the pIC50 was 6.20.
With `O=C(/C=C/c1ccc(Cl)c(Cl)c1)NCCCCCN1CCCN(C(=O)Nc2cccc(C(F)(F)F)c2)CC1`, the pIC50 was 6.06.
With `COc1ccc(N2CCN(CCCCNC(=O)c3ccc(NC(=O)c4ccc(Cl)cc4)cc3)CC2)c(OC)c1` the figure was 6.02; with `Cc1ccccc1C1CCN(C2CCC(NC(=O)/C=C/c3c[nH]c4ccccc34)CC2)CC1` (stereo not drawn), 6.09.
With `COc1cc(NC2CCCC(NCc3cn(S(=O)(=O)c4ccccc4)c4ccccc34)C2)nc2ccccc12` (stereo not drawn), the pIC50 is 6.60.
With `CS(=O)(=O)Nc1ccc2[nH]cc(C3CCN(CCCCCNC(=O)/C=C/c4ccc(Cl)c(Cl)c4)CC3)c2c1` the figure was 6.13; with `CCN(CC)CCN(Cc1ccc(-c2ccc(Cl)cc2)cc1)C(=O)Cn1cc(CN(C)C)c(=O)nc1SCc1ccc(F)cc1`, 6.12.
In turn, `FC(F)(F)c1ccc2nc(-c3cccc(-c4cccc(CNCc5cnn(-c6ccccc6)n5)c4)c3)[nH]c2c1` gave a pIC50 of 6.26.
With `COc1ccc(-c2ccc(NC(=O)c3ccc(F)cc3)cc2)cc1CNC(C)C` the figure was 6.12; with `COc1ccccc1CN1CCC(NC(=O)c2ccc(-c3cccc(Cl)c3)s2)CC1`, 5.85; with `CCc1c(CCNCCCCCCNCCc2ccccc2)ccc(OC)c1OC`, 6.10.
With `N=C(N)CCN(Cc1ccccc1)c1ccc(Cl)cc1` the figure was 6.59; with `COc1ccc(N2CCN(CCCNC(=O)c3ccc(NC(=O)c4cc(Cl)cc(Cl)c4)cc3)CC2)c(OC)c1`, 6.57.
With `O=C(Cc1ccc(NC(=O)c2ccc(O)c(-c3ccc(Cl)c(Cl)c3)c2)cc1)NCCN1CCCCC1`, the pIC50 is 6.08.
In the case of `CC(C)CCN=C(N)c1ccc(OCCCCCOc2ccc(C(N)=NCCC(C)C)cc2)cc1`, the pIC50 was 6.28.
With `Cc1cc(N(C)C2CCN(C)C2)nc(Nc2ccc(Cl)cc2)n1` (stereo not drawn), the pIC50 was 6.47.
To `O=C(Nc1ccccc1O)c1ccc(S(=O)(=O)c2ccc(Cl)cc2)cc1` belongs 5.87; to `FC(F)(F)c1ccc2nc(-c3cccc(-c4cccc(CNCC5CCCO5)c4)c3)[nH]c2c1` (stereo not drawn), 6.38.
With `O=C(NCC1CC1)C1Cc2c([nH]c3ccc(Br)cc23)C2(CCN(CCc3ccccc3)CC2)N1` (stereo not drawn) the figure was 6.04.
To `O=C(Nc1ccc(Br)cc1)N1CCC(n2c(-c3ccccc3)nc3cccnc32)CC1` belongs 6.12; to `CCC(C)CN1CCC(N(C)c2cc(NC(=O)c3ccc(F)cc3)ccn2)CC1` (stereo not drawn), 6.01; to `Cc1noc(C)c1-c1ccc2c(Nc3ccccc3C(C)(C)C)c(C(=O)NCc3cccc4ccccc34)cnc2c1`, 6.03.
Turning to `CC(=O)Nc1cccc(CN(Cc2ccc(-c3ccc(CNCc4cccnc4)cn3)cc2)C(=O)Cc2cccnc2)c1`, the pIC50 is 6.09.
`Cc1nnc(N2C(=N)SC(=Cc3ccc(-c4ccc(OC(F)(F)F)cc4)o3)C2=O)s1` gave a pIC50 of 6.28.
To `CCCCCCCN1CC[C@@H](CCCc2ccnc3ccc(OCCN4CCNCC4)cc23)[C@@H](CC)C1` belongs 6.11; to `CC(=O)Nc1ccc(OCCN(CC(F)(F)F)c2ccc(C#N)cc2C(F)(F)F)cc1`, 6.11; to `COc1ccc2nc(C)cc(Nc3ccc(Oc4ccc(Cl)cc4)c(Cl)c3)c2c1`, 6.72.
`COc1ccccc1C(C)NCC(=O)Nc1ccccc1Sc1ccccc1` (stereo not drawn): the pIC50 was 5.96.

As a reminder, the pIC50 is −log10 of the IC50, conventionally taken in molar units. A lower pIC50 goes with a high IC50.
